Test results published in a melting point compilation (Tetko et al.; mined from patent text by program, amines drawn as free bases though some values may be those of a salt).

Row | SMILES | melting point [°C]
1 | CCOC12CC(C)(C)C(O1)C(OC(=O)c1ccc(N)cc1)C=C2C (stereo unspecified) | 130 to 132
2 | Cc1ccc(Sc2ccc(C(=O)O)cc2)cc1 | 105 to 107
3 | CCOC(=O)C(=O)CC(=O)/C=C/c1ccc(Cl)c(OC)c1F | 67.5 to 69
4 | N#CCNC(=O)C(Cl)=C(Cl)Cl | 58 to 60
5 | O=C(O)c1ccc(OCCCc2ccccc2)cc1 | 165 to 166
6 | COC(=O)c1cscc1OC(C)=O | 56 to 58
7 | CCCCCNS(=O)(=O)NC(=O)CCc1ccc(OCCOC)cc1Oc1ncc(C(F)(F)F)cc1Cl | 153 to 154
8 | CC#COc1ccc2oc3ccccc3c(=O)c2c1 | 153 to 154
9 | CC(C)=CCOC(C)C1CC=C2C3=C(CCC21C)C1(C)CCC(O)C(C)(C)C1CC3 (stereo unspecified) | 117 to 120
10 | O=C(Nc1ccc(Oc2ccc(Cl)cc2Cl)nc1)N1CCc2ccccc2CC1 | 154 to 155
11 | CCOC(=O)Cn1ncc(-c2ccc(OC)cc2)c1-c1ccccc1 | 81 to 84
12 | CN(CCOc1ccc(CO)cc1)c1ncccn1 | 73 to 74
13 | COc1cccc(C=O)c1 | 83 to 84
14 | O=C(O)CSONC(=O)c1c(Cl)ccc2cc(Cl)cnc12 | 174
15 | Cc1cc(C)nc(-n2nc(C)nc2N)n1 | 237
16 | CC1(C)C(=O)N(c2ccnc(N)c2)c2cccnc21 | 210 to 211
17 | C=CCNC(=O)ON=C1CCOc2ccccc21 | 83 to 86
18 | O=C1c2ccccc2C(=O)N1Cc1ccc(OC(F)(F)F)cc1 | 82.1 to 83.6
19 | CCCCCCCCCCCCNC(=O)c1cc(-c2cc(Cl)cc(Cl)c2)c(OCC(=O)O)c(-c2cc(Cl)cc(Cl)c2)c1 | 139 to 144
20 | CC1(CCS)C(=O)N2CCCC(C(=O)O)N2C1=O (stereo unspecified) | 165 to 168
21 | CCOC(=O)NC1N=C(c2ccccc2)c2ccccc2-n2c(C)nnc21 (stereo unspecified) | 198 to 202
22 | Cc1ccc(OC(=O)CCC(=O)OOC(C)(C)C)cc1 | 72 to 77

Row | SMILES | melting point [°C]
23 | CC(=O)Oc1ccc(-c2c3ccccc3c(Br)c3sc4ccccc4c23)cc1OC(C)=O | 178 to 179
24 | COc1nc(C)c(C)nc1NC(=O)N1CCN(c2ccccc2C(C)C)CC1 | 165 to 167
25 | O=C1C(c2ccccc2)=C(c2ccccc2)C(=O)N1Cc1cccc(F)c1 | 107 to 108
26 | Cn1nnc2sc(N)cc2c1=O | 190 to 194
27 | COc1cccc(CC2(c3ccc4[nH]ccc4c3)CCNC2)c1 (stereo unspecified) | 170 to 171
28 | O=C1CCC2=C(CCc3c(F)cccc32)N1 | 233 to 234
29 | CN1CC=C(SC(c2cccc(Br)c2)c2nc3ccccc3[nH]2)CC1 (stereo unspecified) | 189
30 | N#CCC(=O)c1cc(F)c(F)c(F)c1F | 55 to 57
31 | CCNc1ccc2[nH]cc(C3CCN(C)CC3)c2n1 | 132 to 134
32 | CO/N=C(\C)c1cccc(Nc2c3ccccc3nc3occc23)c1 | 137 to 138
33 | CCOC(=O)c1cnn2c1[nH]c(=O)c1cnc3c(cnn3CC)c12 | 263 to 265
34 | O=C(NC(Cc1ccccc1)c1ccc(O)cc1)C(c1ccccc1)c1ccccc1 (stereo unspecified) | 67 to 69
35 | CC(CO)(CCCCN1C(=O)c2ccccc2C1=O)c1ccccc1 (stereo unspecified) | 149 to 150
36 | COc1ccc(NN=C(Cl)C(C)=O)cc1 | 114 to 116
37 | CNS(=O)(=O)CC(N)=O | 104 to 108
38 | CN(C)C1=CC(=O)c2ccccc2OC1 | 136
39 | N#Cc1ccc(NCCc2[nH]c3c(cnc4cc(Cl)ccc43)c2C=O)cc1 | 203 to 206
40 | COc1cc(COc2nn(-c3ccccc3)cc2/C=C/c2nc(C)cs2)ccc1OCc1nc(-c2ccco2)oc1C | 130 to 131
41 | CC1(C2C(=O)N(CC(F)(F)F)c3ccccc32)OCCO1 (stereo unspecified) | 87 to 89
42 | O=C(c1ccc(F)cc1)N1CCCC(c2nc(Oc3ccccc3)no2)C1 (stereo unspecified) | 96 to 100
43 | CCOC(=O)C=C(C)C=CC=C(C)C=Cc1c(C)cc(OC)c(C)c1Cl | 106 to 107
44 | N#Cc1ccc2nc3sc(-c4ccccc4)cc3c(=O)n2c1 | 349 to 351

Row | SMILES | melting point [°C]
45 | CCOC(=O)CCCC(=O)c1ccc(Br)s1 | 53 to 54
46 | CNc1ccccc1C(=O)c1ccccc1 | 66 to 68
47 | ClCc1ccc(OCCCCc2ccccc2)cc1 | 60 to 62
48 | c1cnc2c(N3CCC(N4CCN(c5cccc6[nH]ccc56)CC4)CC3)cccc2c1 | 256
49 | N#CC(N)=C(C#N)N=Cc1cnn(-c2c(Cl)cc(C(F)(F)F)cc2Cl)n1 | 234 to 235
50 | CCCNC(=O)Cc1c(-c2ccc(C)s2)nc2sc3ccccc3n12 | 204 to 206
51 | CCOC(=O)CCc1nc(-c2ccc(Cl)cc2)co1 | 65 to 66
52 | Fc1ccc(CC2CCN(CCOc3ccc4c(c3)=NC(=S)N=4)CC2)cc1 | 278 to 280
53 | CCOC(=O)c1cnoc1-c1ccc(F)c(Br)c1 | 111 to 112
54 | CN(C)CCOc1ccc(Nc2nccc(-c3cccnc3)n2)cc1 | 108 to 110
55 | c1ccc(OCCSCc2ncc(-c3ccc(N=C(c4ccccc4)c4ccccc4)cc3)o2)cc1 | 86 to 90
56 | CC(C)(C)OC(=O)NC1CC(=O)C1 | 75 to 78
57 | Cc1ccc(O)c(C(C)(C)CC(C)(C)C)c1 | 42 to 45
58 | NC(=O)c1nc(-c2cccnc2)nc2c1[nH]c(=O)n2[C@H]1CC[C@H](O)CC1 | 331 to 333
59 | CCOc1ccc2[nH]c3c(c2c1)C[C@@]1(C)C(=O)N(CCBr)C(=O)N1[C@@H]3c1cccc(O)c1 (racemic) | 250 to 252
60 | Fc1cc(F)nc(NCc2ccccc2)n1 | 70 to 73
61 | CSc1c(C#N)nn(-c2c(Cl)cc(C(F)(F)F)cc2Cl)c1N | 147 to 148
62 | CC(=O)OC1CCC2(C)C(CCC3C2C(=O)CC2(C)C3CCC23OCCO3)C1 (stereo unspecified) | 116 to 123
63 | O=C(N[C@@H](Cc1ccccc1)C[C@H](O)[C@H](Cc1ccccc1)NC(=O)OCc1nccs1)OCc1nccs1 | 66 to 69
64 | O=c1[nH]c2cc(Cl)cc(Cl)c2c(=O)n1Cc1ccccc1F | 275 to 278
65 | CCCCC1=NC2(CCCC2)C(=O)N1Cc1ccc(-c2ccccc2S(=O)(=O)Nc2onc(C)c2C)c(CCC(C)C)c1 | 50 to 53
66 | CN(C(=O)N[C@@H](Cc1ccc(Nc2nccc3ccncc23)cc1)C(=O)O)c1ccccc1Cc1ccccc1 | 157

Row | SMILES | melting point [°C]
67 | CCCCCCCCCCCCCCCCCCNC(=O)C=Cc1ccc(O)cc1 | 114
68 | CC(C)(C)NS(=O)(=O)c1ccccc1CCOS(C)(=O)=O | 106 to 108
69 | Cc1nc(-c2cc(Cl)ccc2Cl)n2c1nnc1ccc(F)cc12 | 165 to 168
70 | COc1cccc2sc(-c3ccc([N+](=O)[O-])cc3Cl)nc12 | 187 to 188
71 | O=C(CCCCCCS(=O)c1ccc(Cl)cc1)NO (stereo unspecified) | 103 to 105
72 | C1CCCCN2CCOCCOCCN(CCC1)CCOCCOCC2 | 90 to 91
73 | COc1cc(-c2ccc(-c3ccc(N=Nc4ccccn4)c(OC)c3)o2)ccc1N=Nc1ccccn1 | 212 to 213
74 | CC(C)(CO)c1cnc(-c2nn(-c3ccc(F)cc3F)c3c2C2CCC3C2)o1 (stereo unspecified) | 66 to 68
75 | CC(C)(c1ccc(Oc2cccc3c2C(=O)NC3=O)cc1)c1ccc(Oc2cccc3c2C(=O)NC3=O)cc1 | 258 to 260
76 | Cc1cc(-c2coc3c(C(C)(C)C)cc(C)cc23)c(O)c(C(C)(C)C)c1 | 132 to 134
77 | CCCCc1cn(CCC(C)C)c(=O)n1Cc1ccc(-c2ccccc2-c2nnn[nH]2)nc1 | 168 to 170
78 | OCc1cnn(-c2ccc(OC(F)(F)F)cc2)c1 | 73 to 74
79 | COCCc1nc2c(N)nc3ccccc3c2n1CCCNS(=O)(=O)c1ccccc1 | 149 to 151
80 | O=S(=O)(c1ccc(Oc2ccccc2)cc1)N1CC1 | 136 to 138
81 | COC(=O)c1ccc2c(c1)OCCC2NC(=O)OCc1ccccc1 (stereo unspecified) | 140 to 142
82 | Nc1ccc(N2CCN(c3ccccn3)CC2)cc1 | 119 to 120
83 | CCOC(=O)COc1ccc(C=O)c(O)c1 | 97 to 99
84 | O=C(O)C12CCCCC1CSc1ccccc12 (stereo unspecified) | 200 to 203
85 | COc1ccc(N2CCN(c3ccc(OC)nc3-c3ccc(OC)cc3CO)CC2)cc1 | 163 to 165
86 | CC(C(=O)O)N(O)C(C)(C)C (stereo unspecified) | 73 to 74
87 | Cc1ccc2oc(=O)c(C(=O)Oc3cc(F)ccc3[N+](=O)[O-])cc2c1 | 224 to 226
88 | O=C(NCCCc1ccncc1)N(CCC12CC3CC(CC(C3)C1)C2)Cc1cccs1 | 142 to 144

Row | SMILES | melting point [°C]
89 | CCn1nc(-c2ccc3cc(O)ccc3c2)c2ccc(O)cc21 | 146 to 148
90 | NC(=O)C1COc2c(F)cccc2O1 (stereo unspecified) | 167
91 | CCc1cnc(C2=NC(C)(C(C)C)C(=O)N2)c(C(=O)NCCCCCC(=O)O)c1 (stereo unspecified) | 76 to 81
92 | C=CC(O)c1cc(O)ccc1[N+](=O)[O-] (stereo unspecified) | 126 to 130
93 | NC(=O)NC1CCC(c2ccccc2-n2nc(C(F)(F)F)cc2C(F)(F)F)CC1 (stereo unspecified) | 185 to 188
94 | CCCCC(CC)Cn1c2cc(CO)ccc2c2ccc(CO)cc21 (stereo unspecified) | 119 to 120
95 | CN1CCN(NC(=O)Nc2cccc3c2C(=O)c2c-3n[nH]c2-c2ccc(N3CCNCC3)cc2)CC1 | 254
96 | Cc1cc(C(C)N(O)C(=O)NCCO)c(C)s1 (stereo unspecified) | 122 to 124
97 | COC(=O)c1cccc(CNC(=O)OC(C)(C)C)c1O | 95 to 96
98 | N#Cc1ccc2c(c1)N(C1CC1)C=NS2(=O)=O | 273 to 276
99 | CC(=O)OC1=C(OC(C)=O)C(=O)c2cc(Cl)ccc2C1=O | 110 to 111
100 | CCOC(=O)NS(=O)(=O)c1c(C(=O)OCC)c(Cl)nn1C | 82 to 85
101 | CNC(=O)C(C)Oc1ccc(Oc2ccc(Cl)cc2)cc1 (stereo unspecified) | 117 to 118
102 | COc1cc(C(=O)N(C)OC)c2oc(-c3ccc(OC)c(F)c3)cc2c1 | 100 to 102
103 | CNC(CC(C)C)c1nc(-c2ccc3c(c2)Nc2ccccc2O3)cs1 (stereo unspecified) | 143 to 147
104 | COc1ccc(C=CC(=O)C2CC2)cc1OC | 89 to 91
105 | O=Cc1ccc(OCCCC(=O)O)c(Cl)c1 | 128 to 131
106 | O=S(=O)(Nc1ncnc(OCCO)c1-c1ccc(Cl)cc1)c1ccc(C(F)(F)F)cc1 | 160 to 162
